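Grown in 96-well plates, cells were treated for 48 hours with each compound at five concentrations. Insufficient inhibition: endpoint recorded as highest concentration tested. At the GI50, growth is halved.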 The source made the active and inactive calls. Rule as the data show it: active = GI50 up to about 1.1 µM and inactive = higher. Positions of bridges follow the written chain, without caps; N, C: chain ends. Non-standard residues stand in square brackets, D forms with d. Residues, ends and D or L forms follow the SMILES beside them. Aib = CC(C)(N)C(=O)O; βAla = NCCC(=O)O
How the values were obtained:
Experiment in all cases: NCI-60 cell line screen, 48 h
[1] = tested on: RPMI-8226
[2] = tested on: HOP-62
[3] = tested on: CAKI-1
[4] = tested on: IGROV-1
[5] = tested on: Malme-3M
[6] = tested on: SNB-19
[7] = tested on: UO-31
[8] = tested on: MDA-MB-435
[9] = tested on: SK-OV-3
[10] = tested on: SW-620
[11] = tested on: NCI/ADR-RES
[12] = tested on: OVCAR-8
[13] = tested on: OVCAR-3
[14] = tested on: RXF 393
[15] = tested on: NCI-H23
[16] = tested on: SF-268
[17] = tested on: OVCAR-5
[18] = tested on: HL-60
[19] = tested on: SNB-75
[20] = tested on: SR

| SMILES | GI50 [1] | GI50 [2] | GI50 [3] | GI50 [4] | GI50 [5] | GI50 [6] | GI50 [7] | GI50 [8] | GI50 [9] | GI50 [10] | GI50 [11] | GI50 [12] | GI50 [13] | GI50 [14] | GI50 [15] | GI50 [16] | GI50 [17] | GI50 [18] | GI50 [19] | GI50 [20] |
| --- | --- | --- | --- | --- | --- | --- | --- | --- | --- | --- | --- | --- | --- | --- | --- | --- | --- | --- | --- | --- |
| CCCc1cc(COC)c(C#N)c(O)n1 | > 100 µM (inactive) | > 100 µM (inactive) | > 100 µM (inactive) | > 100 µM (inactive) | > 100 µM (inactive) | > 100 µM (inactive) | > 100 µM (inactive) | > 100 µM (inactive) | > 100 µM (inactive) | > 100 µM (inactive) | > 100 µM (inactive) | > 100 µM (inactive) | > 100 µM (inactive) | > 100 µM (inactive) | > 100 µM (inactive) | > 100 µM (inactive) | > 100 µM (inactive) | > 100 µM (inactive) | – | – |
| CC(C)NC(=O)OCCN=C1c2ccccc2C(Br)C(Br)c2ccccc21 (stereo not given) | 7.83 µM (inactive) | 14.5 µM (inactive) | 7.01 µM (inactive) | 2.66 µM (inactive) | 5.4 µM (inactive) | 16.1 µM (inactive) | 4.21 µM (inactive) | 7.96 µM (inactive) | 26.1 µM (inactive) | 3.76 µM (inactive) | 16 µM (inactive) | 8 µM (inactive) | 12.1 µM (inactive) | 2.87 µM (inactive) | 15.6 µM (inactive) | 14.4 µM (inactive) | 12 µM (inactive) | 1.05 µM (active) | 8.04 µM (inactive) | – |
| NC1=CN(Cc2ccccc2)C2=N/C(=C\c3ccccc3)C(=O)N12 | 71.3 µM (inactive) | > 100 µM (inactive) | > 100 µM (inactive) | > 100 µM (inactive) | > 100 µM (inactive) | > 100 µM (inactive) | 65.9 µM (inactive) | 50.1 µM (inactive) | > 100 µM (inactive) | > 100 µM (inactive) | > 100 µM (inactive) | > 100 µM (inactive) | > 100 µM (inactive) | > 100 µM (inactive) | > 100 µM (inactive) | > 100 µM (inactive) | > 100 µM (inactive) | 26.1 µM (inactive) | > 100 µM (inactive) | – |
| COc1ccc(-c2nc(-c3cnccn3)n(C3OC(CO)C(O)C3O)n2)cc1 (stereo not given) | – | – | – | – | > 10 µM (inactive) | > 10 µM (inactive) | > 10 µM (inactive) | > 10 µM (inactive) | > 10 µM (inactive) | > 10 µM (inactive) | > 10 µM (inactive) | > 10 µM (inactive) | > 10 µM (inactive) | – | > 10 µM (inactive) | > 10 µM (inactive) | > 10 µM (inactive) | > 10 µM (inactive) | > 10 µM (inactive) | > 10 µM (inactive) |
| Cc1ccc(S(=O)(=O)N2CCSCCSCCSCCN(S(=O)(=O)c3ccc(C)cc3)CC2)cc1 | > 100 µM (inactive) | > 100 µM (inactive) | – | > 100 µM (inactive) | – | > 100 µM (inactive) | > 100 µM (inactive) | > 100 µM (inactive) | > 100 µM (inactive) | > 100 µM (inactive) | > 100 µM (inactive) | > 100 µM (inactive) | > 100 µM (inactive) | > 100 µM (inactive) | > 100 µM (inactive) | > 100 µM (inactive) | > 100 µM (inactive) | > 100 µM (inactive) | 61 µM (inactive) | – |
| COc1ccc2c(c1)C1Oc3ccccc3CC1(O)CO2 (stereo not given) | > 100 µM (inactive) | > 100 µM (inactive) | > 100 µM (inactive) | > 100 µM (inactive) | > 100 µM (inactive) | – | > 100 µM (inactive) | > 100 µM (inactive) | > 100 µM (inactive) | > 100 µM (inactive) | > 100 µM (inactive) | > 100 µM (inactive) | > 100 µM (inactive) | – | > 100 µM (inactive) | > 100 µM (inactive) | > 100 µM (inactive) | – | > 100 µM (inactive) | > 100 µM (inactive) |
| CS/C(=N\S(=O)(=O)c1ccc(Cl)cc1)NCCCCN/C(=N/S(=O)(=O)c1ccc(Cl)cc1)SC | > 100 µM (inactive) | > 100 µM (inactive) | > 100 µM (inactive) | 83 µM (inactive) | > 100 µM (inactive) | > 100 µM (inactive) | > 100 µM (inactive) | > 100 µM (inactive) | – | > 100 µM (inactive) | > 100 µM (inactive) | 75.3 µM (inactive) | > 100 µM (inactive) | – | – | 32.5 µM (inactive) | > 100 µM (inactive) | > 100 µM (inactive) | > 10 µM (inactive) | > 100 µM (inactive) |
| Cc1ccc(NC(=O)/C(Cc2nc3ccc([N+](=O)[O-])cc3nc2O)=N\NC(=O)C[n+]2ccccc2)c(C)c1 | – | 38.9 µM (inactive) | 34.7 µM (inactive) | 35.4 µM (inactive) | – | 83.4 µM (inactive) | 18.4 µM (inactive) | 97.3 µM (inactive) | 22.4 µM (inactive) | 61.1 µM (inactive) | 40.9 µM (inactive) | 30.3 µM (inactive) | 23.1 µM (inactive) | 4.06 µM (inactive) | 65.6 µM (inactive) | 67.5 µM (inactive) | > 100 µM (inactive) | 30 µM (inactive) | 97.3 µM (inactive) | – |
| COc1ccc2c3c1O[C@H]1C(=O)C=CC4(n5[nH]c(=O)n(-c6ccccc6)c5=O)C(C2)N(C)CCC314 (stereo not given in full) | > 100 µM (inactive) | > 100 µM (inactive) | > 100 µM (inactive) | > 100 µM (inactive) | > 100 µM (inactive) | > 100 µM (inactive) | > 100 µM (inactive) | > 100 µM (inactive) | > 100 µM (inactive) | > 100 µM (inactive) | > 100 µM (inactive) | > 100 µM (inactive) | > 100 µM (inactive) | – | > 100 µM (inactive) | > 100 µM (inactive) | > 100 µM (inactive) | > 100 µM (inactive) | – | > 100 µM (inactive) |
| C=C(Cl)CN1c2ccccc2C=Cc2ccccc21 | – | 16.6 µM (inactive) | 10 µM (inactive) | 16.1 µM (inactive) | 27.5 µM (inactive) | 22.5 µM (inactive) | 31.6 µM (inactive) | 14.9 µM (inactive) | 15.9 µM (inactive) | – | > 100 µM (inactive) | 14.8 µM (inactive) | 15.7 µM (inactive) | 13 µM (inactive) | > 100 µM (inactive) | 15.7 µM (inactive) | 19.9 µM (inactive) | – | 24.7 µM (inactive) | – |
| CC(=O)OC1COC(n2nc(N)nc2C)C(OC(C)=O)C1OC(C)=O (stereo not given) | > 100 µM (inactive) | > 100 µM (inactive) | > 100 µM (inactive) | > 100 µM (inactive) | > 100 µM (inactive) | > 100 µM (inactive) | > 100 µM (inactive) | > 100 µM (inactive) | > 100 µM (inactive) | > 100 µM (inactive) | > 100 µM (inactive) | > 100 µM (inactive) | > 100 µM (inactive) | > 100 µM (inactive) | > 100 µM (inactive) | > 100 µM (inactive) | > 100 µM (inactive) | > 100 µM (inactive) | > 100 µM (inactive) | – |
| COC(=O)C(=O)CC(=O)c1cccc(OC)c1 | > 100 µM (inactive) | > 100 µM (inactive) | > 100 µM (inactive) | < 0.01 µM (active) | > 100 µM (inactive) | > 100 µM (inactive) | > 100 µM (inactive) | > 100 µM (inactive) | > 100 µM (inactive) | > 100 µM (inactive) | > 100 µM (inactive) | > 100 µM (inactive) | > 100 µM (inactive) | > 100 µM (inactive) | > 100 µM (inactive) | > 100 µM (inactive) | > 100 µM (inactive) | > 100 µM (inactive) | > 100 µM (inactive) | – |
| CS/C(=N\C#N)NC1CC(n2cc(C)c(=O)[nH]c2=O)OC1CO (stereo not given) | – | > 100 µM (inactive) | > 100 µM (inactive) | > 100 µM (inactive) | > 100 µM (inactive) | > 100 µM (inactive) | > 100 µM (inactive) | > 100 µM (inactive) | > 100 µM (inactive) | > 100 µM (inactive) | > 100 µM (inactive) | > 100 µM (inactive) | > 100 µM (inactive) | > 100 µM (inactive) | > 100 µM (inactive) | > 100 µM (inactive) | > 100 µM (inactive) | > 100 µM (inactive) | > 100 µM (inactive) | – |
| C[N+]1(C)C(c2ccccc2)C(=O)O[B@-]1(F)c1ccccc1 (stereo not given in full) | > 100 µM (inactive) | > 100 µM (inactive) | – | > 100 µM (inactive) | > 100 µM (inactive) | > 100 µM (inactive) | > 100 µM (inactive) | > 100 µM (inactive) | > 100 µM (inactive) | > 100 µM (inactive) | > 100 µM (inactive) | > 100 µM (inactive) | > 100 µM (inactive) | – | > 100 µM (inactive) | > 100 µM (inactive) | > 100 µM (inactive) | > 100 µM (inactive) | 60.3 µM (inactive) | > 100 µM (inactive) |
| CC1(C)NC(=O)C(NC(=O)C(N)CC(=O)O)CCCCNC(=O)CCNC1=O (stereo not given) (H-DK[Aib][βAla]; lactam 2-C; configuration not given here) | > 100 µM (inactive) | > 100 µM (inactive) | > 100 µM (inactive) | > 100 µM (inactive) | > 100 µM (inactive) | > 100 µM (inactive) | > 100 µM (inactive) | > 100 µM (inactive) | > 100 µM (inactive) | > 100 µM (inactive) | > 100 µM (inactive) | > 100 µM (inactive) | > 100 µM (inactive) | > 100 µM (inactive) | > 100 µM (inactive) | > 100 µM (inactive) | > 100 µM (inactive) | – | > 100 µM (inactive) | – |

From ChEMBL document CHEMBL1201862, “PubChem BioAssay data set” (2004)
